Literature values as cited in US12397030B2, “Polyphenol compositions and uses thereof” (METAGENICS, INC., priority 2019, dated 2025).

Columns and labels:
[1] = humans
[2] = system: ATP-binding cassette transporter A1 (ABCA1); details: enhances reverse cholesterol transport

| Structure (SMILES) | time by which no longer detected [1] [h] | time to appearance following consumption [1] [min] | elimination half-life ([1]; after consumption) [min] | ABCA1 expression in macrophages [2] |
| --- | --- | --- | --- | --- |
| O=c1oc2c(O)c(O)cc3c(=O)oc4c(O)c(O)cc1c4c23 [ellagic acid] | ≤ 5 | ~30 | 42.6 | – |
| O=c1oc2cc(O)ccc2c2ccccc12 [urolithin B] | – | – | – | upregulation |
